Measured values reported in patent publication US9763445B2, “Safened herbicidal compositions comprising a pyridine carboxylic acid herbicide” (Dow AgroSciences, LLC, priority 2014, dated 2017).

Assays:
lambsquarters (CHEAL) = assay: Postemergence greenhouse trial, % visual injury on lambsquarters; format: in vivo, Chenopodium album; conditions: for % visual injury, Ob / % visual injury, observed (Ob): CHEAL
Summary of the method: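 Plants at second or third true leaf stage, greenhouse-grown (14 h photoperiod, ~23/22° C.), sprayed postemergence with compounds alone or with safener cloquintocet-mexyl in 1.5% v/v Agri-dex crop oil at 187 L/ha. Visual injury scored 0–100% versus solvent-blank controls after 20-22 d; expected mixture effects by Colby's equation.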

spring wheat (TRZAS) = assay: Postemergence greenhouse trial, % visual injury on spring wheat; format: in vivo, Triticum aestivum
Summary of the method: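 Postemergence greenhouse spray (187 L/ha, 1.5% v/v Agri-dex in water, acetone/DMSO stocks) on plants at second–third true leaf stage, ~23/22 °C, 14 h photoperiod; herbicides in g ae/ha, safener cloquintocet-mexyl in g ai/ha. Visual injury 0–100% versus solvent-blank controls after 20–22 d; Colby's equation gave expected mixture effects.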

wild mustard (SINAR) = assay: Postemergence greenhouse trial, % visual injury on wild mustard; format: in vivo, Sinapis arvensis; conditions: for % visual injury, Ob: SINAR
Summary of the method: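 Herbicide rates g ae/ha, safener (cloquintocet-mexyl) rates g ai/ha; spray carrier 1.5% v/v crop oil concentrate, 187 L/ha, 2nd–3rd leaf stage. Rating: visual % injury at 20-22 d.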

CCCCCC(C)OC(=O)COc1ccc(Cl)c2cccnc12 (centres unmarked) [CQC-m, cloquintocet-mexyl, reference compound]
0%: % visual injury, Ob (lambsquarters (CHEAL); 4.375 g/ha, applied alone) | % visual injury, Ob (lambsquarters (CHEAL); 8.75 g/ha, applied alone) | % visual injury, Ob (lambsquarters (CHEAL); 17.5 g/ha, applied alone) | % visual injury, Ob (lambsquarters (CHEAL); 35 g/ha, applied alone) | % visual injury, Ob (lambsquarters (CHEAL); 70 g/ha, applied alone) | % visual injury, Ob (lambsquarters (CHEAL); compound 0, CQC-m 4.375 g/ha) | % visual injury, Ob (lambsquarters (CHEAL); compound 0, CQC-m 8.75 g/ha) | % visual injury, Ob (lambsquarters (CHEAL); compound 0, CQC-m 17.5 g/ha) | % visual injury, Ob (lambsquarters (CHEAL); compound 0, CQC-m 35 g/ha) | % visual injury, Ob (lambsquarters (CHEAL); compound 0, CQC-m 70 g/ha) | % visual injury, observed (Ob) (lambsquarters (CHEAL); compound 8 0 + CQC-m 4.375 g/ha) | % visual injury, observed (Ob) (lambsquarters (CHEAL); compound 8 0 + CQC-m 8.75 g/ha) | % visual injury, observed (Ob) (lambsquarters (CHEAL); compound 8 0 + CQC-m 17.5 g/ha) | % visual injury, observed (Ob) (lambsquarters (CHEAL); compound 8 0 + CQC-m 35 g/ha) | % visual injury, observed (Ob) (lambsquarters (CHEAL); compound 8 0 + CQC-m 70 g/ha) | pest or weed control at 4.375 g/ha (lambsquarters (CHEAL); Chenopodium album, post-emergence, alone, 4.375 g/ha, read-out: % visual injury, Ob) | pest or weed control at 8.75 g/ha (lambsquarters (CHEAL); Chenopodium album, post-emergence, alone, 8.75 g/ha, read-out: % visual injury, Ob) | pest or weed control at 17.5 g/ha (lambsquarters (CHEAL); Chenopodium album, post-emergence, alone, 17.5 g/ha, read-out: % visual injury, Ob) | pest or weed control at 20 g/ha (lambsquarters (CHEAL); Chenopodium album, post-emergence, alone, 20 g/ha, read-out: % visual injury, Ob) | pest or weed control at 35 g/ha (lambsquarters (CHEAL); Chenopodium album, post-emergence, alone, 35 g/ha, read-out: % visual injury, Ob) | pest or weed control at 40 g/ha (lambsquarters (CHEAL); Chenopodium album, post-emergence, alone, 40 g/ha, read-out: % visual injury, Ob) | pest or weed control at 70 g/ha (lambsquarters (CHEAL); Chenopodium album, post-emergence, alone, 70 g/ha, read-out: % visual injury, Ob) | pest or weed control at 80 g/ha (lambsquarters (CHEAL); Chenopodium album, post-emergence, alone, 80 g/ha, read-out: % visual injury, Ob) | % visual injury, Ob (spring wheat (TRZAS); TRZAS, 4.375 g/ha, applied alone) | % visual injury, Ob (spring wheat (TRZAS); TRZAS, 8.75 g/ha, applied alone) | % visual injury, Ob (spring wheat (TRZAS); TRZAS, 17.5 g/ha, applied alone) | % visual injury, Ob (spring wheat (TRZAS); TRZAS, 35 g/ha, applied alone) | % visual injury, Ob (spring wheat (TRZAS); TRZAS, 70 g/ha, applied alone) | % visual injury, Ob (spring wheat (TRZAS); TRZAS, compound 0, CQC-m 4.375 g/ha) | % visual injury, Ob (spring wheat (TRZAS); TRZAS, compound 0, CQC-m 8.75 g/ha) | % visual injury, Ob (spring wheat (TRZAS); TRZAS, compound 0, CQC-m 17.5 g/ha) | % visual injury, Ob (spring wheat (TRZAS); TRZAS, compound 0, CQC-m 35 g/ha) | % visual injury, Ob (spring wheat (TRZAS); TRZAS, compound 0, CQC-m 70 g/ha) | % visual injury, Ob (spring wheat (TRZAS); TRZAS, compound 0 g/ha, CQC-m 4.375 g/ha) | % visual injury, Ob (spring wheat (TRZAS); TRZAS, compound 0 g/ha, CQC-m 8.75 g/ha) | % visual injury, Ob (spring wheat (TRZAS); TRZAS, compound 0 g/ha, CQC-m 17.5 g/ha) | % visual injury, Ob (spring wheat (TRZAS); TRZAS, compound 0 g/ha, CQC-m 35 g/ha) | % visual injury, Ob (spring wheat (TRZAS); TRZAS, compound 0 g/ha, CQC-m 70 g/ha) | % visual injury, observed (Ob) (spring wheat (TRZAS); TRZAS, compound 8 0 + CQC-m 4.375 g/ha) | % visual injury, observed (Ob) (spring wheat (TRZAS); TRZAS, compound 8 0 + CQC-m 8.75 g/ha) | % visual injury, observed (Ob) (spring wheat (TRZAS); TRZAS, compound 8 0 + CQC-m 17.5 g/ha) | % visual injury, observed (Ob) (spring wheat (TRZAS); TRZAS, compound 8 0 + CQC-m 35 g/ha) | % visual injury, observed (Ob) (spring wheat (TRZAS); TRZAS, compound 8 0 + CQC-m 70 g/ha) | % visual injury, Ob (spring wheat (TRZAS); alone, 4.375 g/ha) | % visual injury, Ob (spring wheat (TRZAS); alone, 8.75 g/ha) | % visual injury, Ob (spring wheat (TRZAS); alone, 17.5 g/ha) | % visual injury, Ob (spring wheat (TRZAS); alone, 20 g/ha) | % visual injury, Ob (spring wheat (TRZAS); alone, 35 g/ha) | % visual injury, Ob (spring wheat (TRZAS); alone, 40 g/ha) | % visual injury, Ob (spring wheat (TRZAS); alone, 70 g/ha) | % visual injury, Ob (spring wheat (TRZAS); alone, 80 g/ha) | pest or weed control at 4.375 g/ha (wild mustard (SINAR); Brassica, post-emergence, alone, 4.375 g/ha, read-out: % visual injury, Ob) | pest or weed control at 8.75 g/ha (wild mustard (SINAR); Brassica, post-emergence, alone, 8.75 g/ha, read-out: % visual injury, Ob) | pest or weed control at 17.5 g/ha (wild mustard (SINAR); Brassica, post-emergence, alone, 17.5 g/ha, read-out: % visual injury, Ob) | pest or weed control at 35 g/ha (wild mustard (SINAR); Brassica, post-emergence, alone, 35 g/ha, read-out: % visual injury, Ob) | pest or weed control at 70 g/ha (wild mustard (SINAR); Brassica, post-emergence, alone, 70 g/ha, read-out: % visual injury, Ob) | % visual injury, Ob (wild mustard (SINAR); 4.375 g/ha, applied alone) | % visual injury, Ob (wild mustard (SINAR); 8.75 g/ha, applied alone) | % visual injury, Ob (wild mustard (SINAR); 17.5 g/ha, applied alone) | % visual injury, Ob (wild mustard (SINAR); 35 g/ha, applied alone) | % visual injury, Ob (wild mustard (SINAR); 70 g/ha, applied alone) | % visual injury, Ob (wild mustard (SINAR); compound 0, CQC-m 4.375 g/ha)
